What was measured:
[1] = AUClast in BALB/c mouse at 1 mg/kg, iv after 0.083 to 144 hrs by LC-MS/MS analysis; format: ADME, organism-based; set-up: dose 1 mg/kg, time upper 144 hr, time lower 0.083 hr, route intravenous; conditions: in vivo
Rattus norvegicus [2] = assay: Memory enhancement effect in time-delay induced Wistar rat model of amnesia assessed as exploration time for object1 in acquisition trial at 3 mg/kg, po administered as single dose and measured on day 8 by novel object recognition test (reference value: 13.95 sec); format: functional
[3] = Volume of distribution at steady state in BALB/c mouse at 1 mg/kg, iv after 0.083 to 144 hrs by LC-MS/MS analysis; format: ADME, organism-based; conditions: in vivo, read-out: Vdss
[4] = AUClast in Beagle dog at 10 mg/kg, po after 0.25 to 144 hrs by LC-MS/MS analysis; format: ADME, organism-based, Canis lupus familiaris; set-up: time upper 144 hr, dose 10 mg/kg, time lower 0.25 hr, route oral; conditions: in vivo
[5] = Protein binding in mouse plasma at 5 uM incubated for 16 hrs under shaking condition by LC/MS/MS based rapid equilibrium dialysis method; format: ADME, cell-free; conditions: read-out: PPB (converted)
Rattus norvegicus [6] = assay: Memory enhancement effect in time-delay induced Wistar rat model of amnesia assessed as exploration time for object1 in acquisition trial at 1 mg/kg, po administered as single dose and measured on day 8 by novel object recognition test (reference value: 13.95 sec); format: functional
[7] = Ratio of AUCt in brain to plasma in Wistar rat at 10 mg/kg, po after 144 hrs by LC-MS/MS analysis; format: ADME, organism-based
[8] = Drug concentration in Wistar rat brain at 10 mg/kg, po after 4 hrs by LC-MS/MS analysis; format: ADME, organism-based; conditions: read-out: Drug uptake
[9] = AUC (0 to 144 hrs) in Wistar rat at 10 mg/kg, po after 0.25 to 144 hrs by LC-MS/MS analysis; format: ADME, organism-based; set-up: dose 10 mg/kg, time < 144 hr, route oral; conditions: in vivo
Rattus norvegicus [10] = assay: Memory enhancement effect in scopolamine-induced Wistar rat model of amnesia assessed as exploration time for object2 in acquisition trial at 0.05 mg/kg, po administered as single dose and measured on day 8 by novel object recognition test (reference value: 15.63 sec); format: functional
Rattus norvegicus [11] = assay: Memory enhancement effect in time-delay induced Wistar rat model of amnesia assessed as increase in discrimination index at 0.5 mg/kg, po for 7 days and measured on day 8 by novel object recognition test (reference value: 0.12); format: functional
[12] = Drug concentration in Wistar rat brain at 10 mg/kg, po after 24 hrs by LC-MS/MS analysis; format: ADME, organism-based; conditions: read-out: Drug uptake
Rattus norvegicus [13] = assay: Memory enhancement effect in scopolamine-induced Wistar rat model of amnesia assessed as increase in novel object discrimination index at 0.5 mg/kg, po administered as single dose and measured on day 9 by novel object recognition test (reference value: 0.21); format: functional
Rattus norvegicus [14] = assay: Memory enhancement effect in scopolamine-induced Wistar rat model of amnesia assessed as exploration time for object2 in acquisition trial at 0.15 mg/kg, po administered as single dose and measured on day 8 by novel object recognition test (reference value: 15.63 sec); format: functional
Rattus norvegicus [15] = assay: Memory enhancement effect in scopolamine-induced Wistar rat model of amnesia assessed as exploration time for novel object in retention trial at 0.5 mg/kg, po for 7 days and measured on day 8 by novel object recognition test (reference value: 12.09 sec); format: functional
Rattus norvegicus [16] = assay: Improvement in social recognition time delay-induced Sprague-Dawley rat model of amnesia assessed as reduction in recognition index at 0.15 mg/kg, po for 7 days and measured on day 9 (reference value: 1.05); format: functional
Rattus norvegicus [17] = assay: Memory enhancement effect in time-delay induced Wistar rat model of amnesia assessed as exploration time for novel object in retention trial at 0.15 mg/kg, po for 7 days and measured on day 8 by novel object recognition test (reference value: 15.37 sec); format: functional
[18] = Metabolic stability in human pooled liver microsomes assessed as compound remaining at 1 uM preincubated for 5 mins followed by NADPH addition and measured after 30 mins by LC-MS/MS analysis; format: ADME, Microsome; conditions: read-out: Stability
Rattus norvegicus [19] = assay: Improvement in social recognition time delay-induced Sprague-Dawley rat model of amnesia assessed as reduction in recognition index at 0.50 mg/kg, po for 7 days and measured on day 9 (reference value: 1.05); format: functional
[20] = Drug concentration in Wistar rat plasma at 10 mg/kg, po after 4 hrs by LC-MS/MS analysis; format: ADME, organism-based
Rattus norvegicus [21] = assay: Memory enhancement effect in scopolamine-induced Wistar rat model of amnesia assessed as exploration time for object2 in acquisition trial at 0.5 mg/kg, po administered as single dose and measured on day 8 by novel object recognition test (reference value: 15.63 sec); format: functional
Rattus norvegicus [22] = assay: Improvement in social recognition scopolamine-induced Sprague-Dawley rat model of amnesia assessed as increase in reduction in social investigation time at 3 mg/kg, po administered as single dose prior to 1 hr training and measured after 30 mins (reference value: 9.81%); format: functional; set-up: scale not given: the % may be the effect or the level left
[23] = Drug level in Sprague-Dawley rat plasma at 0.5 mg/kg, po for 7 days; format: ADME, organism-based
[24] = Protein binding in human plasma assessed as unbound fraction at 5 uM incubated for 16 hrs under shaking condition by LC/MS/MS based rapid equilibrium dialysis method; format: ADME, cell-free
[25] = Half life in Wistar rat at 1 mg/kg, iv after 0.083 to 144 hrs by LC-MS/MS analysis; format: ADME, organism-based; conditions: in vivo
Rattus norvegicus [26] = assay: Improvement in social recognition time delay-induced Sprague-Dawley rat model of amnesia assessed as reduction in recognition index 3 mg/kg, po administered as single dose prior to 1 hr training and measured after 30 mins (reference value: 1); format: functional
[27] = Volume of distribution at steady state in Wistar rat at 1 mg/kg, iv after 0.083 to 144 hrs by LC-MS/MS analysis; format: ADME, organism-based; conditions: in vivo, read-out: Vdss
Rattus norvegicus [28] = assay: Memory enhancement effect in scopolamine-induced Wistar rat model of amnesia assessed as exploration time for object1 in acquisition trial at 0.5 mg/kg, po for 7 days and measured on day 8 by novel object recognition test (reference value: 16.11 sec); format: functional
Rattus norvegicus [29] = assay: Memory enhancement effect in scopolamine-induced Wistar rat model of amnesia assessed as increase in novel object discrimination index at 0.05 mg/kg, po administered as single dose and measured on day 9 by novel object recognition test (reference value: 0.21); format: functional
[30] = AUC (0 to 144 hrs) in Wistar rat at 1 mg/kg, iv after 0.083 to 144 hrs by LC-MS/MS analysis; format: ADME, organism-based; set-up: time < 144 hr, dose 1 mg/kg, route intravenous; conditions: in vivo

CCC(=O)c1sc(-c2ccc(Cl)cc2)c(C)c1-c1ccc(S(N)(=O)=O)cc1
AUC(0-t) [1]: 11 µM·h | Time (Rattus norvegicus [2]): 25.56 s | Vd [3]: 4 L/kg | AUC(0-t) [4]: 282 µM·h | fraction unbound at 16 h, 5 µM [5]: 0.0116 | Time (Rattus norvegicus [6]): 23.61 s | Kp at 144 h [7]: 9 | concentration at 4 h [8]: 9.22 µM | AUC(0-t) at 144 h [9]: 201 µM·h | Time (Rattus norvegicus [10]): 18.31 s | Activity_index (Rattus norvegicus [11]): 0.58 | concentration at 24 h [12]: 6.52 µM | Activity_index (Rattus norvegicus [13]): 0.45 | Time (Rattus norvegicus [14]): 13.41 s | Time (Rattus norvegicus [15]): 15.06 s | Activity_index (Rattus norvegicus [16]): 0.56 | Time (Rattus norvegicus [17]): 7.15 s | remaining at 0.5 h, 1 µM [18]: 90% | Activity_index (Rattus norvegicus [19]): 0.54 | concentration at 4 h [20]: 0.85 µM | Time (Rattus norvegicus [21]): 16.55 s | Activity (Rattus norvegicus [22]): 55.09% | concentration at 168 h [23]: 1.12 µM | fraction unbound at 16 h, 5 µM [24]: 0.0015 | half-life [25]: 45 h | Activity_index (Rattus norvegicus [26]): 0.47 | Vd [27]: 4.3 L/kg | Time (Rattus norvegicus [28]): 13.94 s | Activity_index (Rattus norvegicus [29]): 0.3 | AUC(0-t) at 144 h [30]: 27 µM·h

From ChEMBL document CHEMBL4354827, “Discovery of Novel, Potent, Brain-Permeable, and Orally Efficacious Positive Allosteric Modulator of α7 Nicotinic Acetylcholine Receptor [4-(5-(4-Chlorophenyl)-4-methyl-2-propionylthiophen-3-yl)benzenesulfonamide]: Structure-Activity Relationship and Preclinical Characterization” (J Med Chem, 2020)
